The supplement of paper PMC10307832

Experiments:
Assay in all cases: relative viability (nuclei count vs DMSO), 5 days (fraction); higher = more cells survive
17-AAG + Alpelisib = compound: C=CCNC1=C2C[C@@H](C)C[C@H](OC)[C@H](O)[C@@H](C)/C=C(\C)[C@H](OC(N)=O)[C@@H](OC)/C=C\C=C(/C)C(=O)NC(=CC1=O)C2=O [17-AAG] + Cc1nc(NC(=O)N2CCC[C@H]2C(N)=O)sc1-c1ccnc(C(C)(C)C(F)(F)F)c1 [Alpelisib] (partner 2 µM)
Summary of the method: (§1)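 One day after seeding in 1536-well plates, lung cancer cell lines were dosed by pin tool. Dosing was either single-drug or a fixed anchor-drug dose plus five library-drug doses (not always all listed) in √10 steps. After 5 days, nuclei were stained in one fix-and-stain step and counted on 4× images, and relative viability is the nuclei count of treated wells over that of vehicle wells, given as the median of duplicate plates.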

17-AAG + Pictilisib = compound: C=CCNC1=C2C[C@@H](C)C[C@H](OC)[C@H](O)[C@@H](C)/C=C(\C)[C@H](OC(N)=O)[C@@H](OC)/C=C\C=C(/C)C(=O)NC(=CC1=O)C2=O [17-AAG] + CS(=O)(=O)N1CCN(Cc2cc3nc(-c4cccc5[nH]ncc45)nc(N4CCOCC4)c3s2)CC1 [Pictilisib] (partner 1 µM)
Summary of the method: as §1

17-AAG + Linsitinib = compound: C=CCNC1=C2C[C@@H](C)C[C@H](OC)[C@H](O)[C@@H](C)/C=C(\C)[C@H](OC(N)=O)[C@@H](OC)/C=C\C=C(/C)C(=O)NC(=CC1=O)C2=O [17-AAG] + C[C@]1(O)C[C@@H](c2nc(-c3ccc4ccc(-c5ccccc5)nc4c3)c3c(N)nccn32)C1 [Linsitinib] (partner 1 µM)
Summary of the method: as §1

17-AAG + Decitabine = compound: C=CCNC1=C2C[C@@H](C)C[C@H](OC)[C@H](O)[C@@H](C)/C=C(\C)[C@H](OC(N)=O)[C@@H](OC)/C=C\C=C(/C)C(=O)NC(=CC1=O)C2=O [17-AAG] + Nc1ncn([C@H]2C[C@H](O)[C@@H](CO)O2)c(=O)n1 [Decitabine] (partner 2 µM)
Summary of the method: as §1

Cell Line | relative viability (17-AAG + Alpelisib; first compound 0.00128 µM) | relative viability (17-AAG + Alpelisib; first compound 0.004048 µM) | relative viability (17-AAG + Alpelisib; first compound 0.0128 µM) | relative viability (17-AAG + Alpelisib; first compound 0.04048 µM) | relative viability (17-AAG + Alpelisib; first compound 0.128 µM) | relative viability (17-AAG + Pictilisib; first compound 0.00128 µM) | relative viability (17-AAG + Pictilisib; first compound 0.004048 µM) | relative viability (17-AAG + Pictilisib; first compound 0.0128 µM) | relative viability (17-AAG + Pictilisib; first compound 0.04048 µM) | relative viability (17-AAG + Pictilisib; first compound 0.128 µM) | relative viability (17-AAG + Linsitinib; first compound 0.00128 µM) | relative viability (17-AAG + Linsitinib; first compound 0.004048 µM) | relative viability (17-AAG + Linsitinib; first compound 0.0128 µM) | relative viability (17-AAG + Linsitinib; first compound 0.04048 µM) | relative viability (17-AAG + Linsitinib; first compound 0.128 µM) | relative viability (17-AAG + Decitabine; first compound 0.00128 µM) | relative viability (17-AAG + Decitabine; first compound 0.004048 µM) | relative viability (17-AAG + Decitabine; first compound 0.0128 µM) | relative viability (17-AAG + Decitabine; first compound 0.04048 µM) | relative viability (17-AAG + Decitabine; first compound 0.128 µM)
NCI-H3122 | 0.687 | 0.533 | 0.198 | 0.196 | 0.173 | 0.489 | 0.375 | 0.195 | 0.194 | 0.161 | 1.02 | 0.985 | 0.254 | 0.207 | 0.138 | 0.487 | 0.413 | 0.426 | 0.235 | 0.118
HCC-15 | 0.948 | 0.772 | 0.587 | 0.403 | 0.16 | 0.73 | 0.774 | 0.508 | 0.187 | 0.121 | 0.879 | 0.894 | 0.613 | 0.387 | 0.213 | 0.599 | 0.557 | 0.174 | 0.136 | 0.137
RERF-LC-KJ | 0.957 | 0.829 | 0.759 | 0.291 | 0.277 | 0.591 | 0.688 | 0.324 | 0.242 | 0.21 | 0.857 | 0.886 | 0.923 | 0.881 | 0.275 | 0.66 | 0.447 | 0.225 | 0.27 | 0.202
NCI-H1944 | 0.883 | 0.88 | 0.85 | 0.682 | 0.281 | 0.352 | 0.349 | 0.324 | 0.28 | 0.24 | 1.25 | 1.22 | 1.16 | 0.872 | 0.319 | 0.418 | 0.445 | 0.441 | 0.357 | 0.163
HARA | 0.887 | 0.967 | 0.736 | 0.828 | 0.378 | 0.49 | 0.445 | 0.385 | 0.16 | 0.164 | 0.947 | 1.01 | 0.909 | 0.442 | 0.754 | 0.517 | 0.57 | 0.617 | 0.569 | 0.232
